According to patent US8691864B2, “Agents useful for reducing amyloid precursor protein and treating dementia and methods of use thereof” (priority 2000, dated 2014):

Experiments:
secreted APP = assay: ELISA for secreted APP in SHSY5Y cells; format: cell-based, human; settings: 16 hours
Experimental: (§1) An enzyme-linked immunosorbent assay was developed to detect secreted APP in SHSY5Y cells, a human neuroblastoma cell line. The purpose of the screen was to discover small molecules that inhibit APP protein synthesis in SHSY5Y cells. SHSY5Y cells were plated at 1×10^5 cells/well in […] of DMEM containing 0.5% heat inactivated FBS in 96 well tissue culture treated plates (Falcon no. 35 3072). 144 MES compounds were tested at final concentrations of […] in 0.1% DMSO. Compounds were added and the plates incubated for 16 hours at 37° C./5% CO2. Maxisorp plates (Nunc no. 437958) were coated overnight with […] capture antibody (Biosource 44-100) diluted in Ca^++ and Mg^++ free PBS. Biosource 44-100 is a mouse mAb that recognizes aa 1-100 of human APP. Plates were blocked for 30 minutes with 1 mg/mL BSA in Ca^++ and Mg^++ free PBS. Plates were washed 3× with wash buffer (Ca^++ and Mg^++ free PBS+0.01% Tween20). […] of supernatants and non-cultured medium controls were transferred from culture plates to ELISA plates. Culture plates were reserved for toxicity analysis. Supernatants were incubated for 4 hours at RT on a plate shaker. After supernatant incubation, plates were washed 3×. Primary antibody (Signet Clone 6E-10 biotin) was added at 0.3125 mg/mL and incubated overnight at 4° C. The recognition site of 6E-10 is aa 1-17 of Ab. For detection, a 1:3000 dilution of horseradish peroxidase conjugated streptavidin (Endogen no. N-100) was incubated for 30 minutes. Plates were washed 3×. Enzyme activity was assessed by incubation with […] TMB substrate solution (Moss no. TMB-US) for 20 minutes. The reaction was stopped by the addition of […] 0.18M sulfuric acid. Optical density was read at 450 nm on Wallac Victor2 plate reader. During the first incubation, toxicity was determined using MTS assay, Cell Titer96 AQ reagent (Promega no. G5430). The background values from the non-cultured medium control were subtracted from the sample values and secreted APP levels and toxicity were expressed as % vehicle control. Of the 144 MES compounds screened, 12 inhibited secreted APP as determined by ELISA. The results are depicted in FIGS. 13A-M.
(§2) Using the experimental procedure outlined above, APP secretion and toxicity studies were performed on several other non-carbamate compounds, and the results are shown in Tables 3 and 4. The compound structures are provided in Table 2 in the application, which are identified by their MES number.

SH-SY-5Y Cells = assay: MTS toxicity assay in SHSY5Y cells; format: cell-based, human
Experimental: as §1, §2

Structure (SMILES) | APP Secretion by SH-SY-5Y Cells (secreted APP; Dose 2 uM) [% vehicle control] | APP Secretion by SH-SY-5Y Cells (secreted APP; Dose 6 uM) [% vehicle control] | APP Secretion by SH-SY-5Y Cells (secreted APP; Dose 20 uM) [% vehicle control] | APP Toxicity SH-SY-5Y Cells (MTS assay) (SH-SY-5Y Cells; Dose 2 uM) [% vehicle control] | APP Toxicity SH-SY-5Y Cells (MTS assay) (SH-SY-5Y Cells; Dose 6 uM) [% vehicle control] | APP Toxicity SH-SY-5Y Cells (MTS assay) (SH-SY-5Y Cells; Dose 20 uM) [% vehicle control] | APP Secretion by SH-SY-5Y Cells (secreted APP; Dose 0.08 uM) [% vehicle control] | APP Secretion by SH-SY-5Y Cells (secreted APP; Dose 0.25 uM) [% vehicle control] | APP Secretion by SH-SY-5Y Cells (secreted APP; Dose 0.74 uM) [% vehicle control] | APP Toxicity SH-SY-5Y Cells (MTS assay) (SH-SY-5Y Cells; Dose 0.08 uM) [% vehicle control] | APP Toxicity SH-SY-5Y Cells (MTS assay) (SH-SY-5Y Cells; Dose 0.25 uM) [% vehicle control] | APP Toxicity SH-SY-5Y Cells (MTS assay) (SH-SY-5Y Cells; Dose 0.74 uM) [% vehicle control] | APP Secretion by SH-SY-5Y Cells (secreted APP; Dose 2 uM, listed as 9228) [% vehicle control] | APP Secretion by SH-SY-5Y Cells (secreted APP; Dose 6 uM, listed as 9228) [% vehicle control] | APP Secretion by SH-SY-5Y Cells (secreted APP; Dose 20 uM, listed as 9228) [% vehicle control] | APP Toxicity SH-SY-5Y Cells (MTS assay) (SH-SY-5Y Cells; Dose 2 uM, listed as 9228) [% vehicle control] | APP Toxicity SH-SY-5Y Cells (MTS assay) (SH-SY-5Y Cells; Dose 6 uM, listed as 9228) [% vehicle control] | APP Toxicity SH-SY-5Y Cells (MTS assay) (SH-SY-5Y Cells; Dose 20 uM, listed as 9228) [% vehicle control]
COc1ccc2c(c1)[C@]1(C)CCN(C)C1N2Cc1ccccc1 (single isomer, unassigned) [MES 9202] | 94.4 | 107.55 | 110.05 | 99.15 | 97.85 | 90.25 | – | – | – | – | – | – | – | – | – | – | – | –
COc1ccc2c(c1)[C@@]1(C)CCN(C)C1N2Cc1ccccc1 (single isomer, unassigned) [MES 9203] | 103.1 | 103.9 | 108.4 | 98.93 | 99.17 | 98.83 | – | – | – | – | – | – | – | – | – | – | – | –
COc1ccc2c(c1)[C@@]1(C)CCN(C)C1N2C (single isomer, unassigned; (+)) [MES 9295, (+)-O-Methyleseroline] | 102.6 | 95.7 | 89.35 | 101.15 | 100.4 | 99.85 | – | – | – | – | – | – | – | – | – | – | – | –
CN1CC[C@@]2(C)c3cc(O)ccc3N(C)C2NC1=O (single isomer, unassigned; (-)) [MES 9205] | 96.73 | 96.9 | 22.17 | 97.9 | 97.73 | 33.33 | 115.1 | 107.4 | 114.7 | 108.7 | 105.8 | 105.6 | – | – | – | – | – | –
CN1c2ccc(OC3CCCCO3)cc2[C@]2(C)CCNC12 (single isomer, unassigned; (-)) [MES 9320, (−)-O-Tetrahydropyranyl-N-1-noreseroline] | 103.15 | 91.8 | 15.2 | 92 | 84 | 28 | – | – | – | – | – | – | – | – | – | – | – | –
COc1ccc2c(c1)c(CCN(C)C)cn2Cc1ccccc1 [MES 9191, N,N-Dimethyl-N^1-benzyl-5-methoxytryptamine] | 100.74 | 65.3 | 64.36 | 99.18 | 92.84 | 91.1 | 100.8 | 101.6 | 99.87 | 104.5 | 103.9 | 103.7 | – | – | – | – | – | –
COc1ccc2c(c1)C1(C)CCN(C)C1N2Cc1ccccc1 (stereo not drawn) [MES 9199] | 92.2 | 93.9 | 102.95 | 100.5 | 101.65 | 101.9 | – | – | – | – | – | – | – | – | – | – | – | –
COc1ccc2c(c1)C1(C)CCN(C)C1N2 (stereo not drawn) [MES 9201] | 97.25 | 110.75 | 124.65 | 98.9 | 98.65 | 98.25 | – | – | – | – | – | – | – | – | – | – | – | –
CN1CC[C@@]2(C)c3cc(O)ccc3N(Cc3ccccc3)C12 (stereo partly drawn) [MES 9206] | 88.2 | 97.1 | 96.4 | 96 | 91.85 | 76.3 | – | – | – | – | – | – | – | – | – | – | – | –
CN1CC[C@]2(C)c3cc(O)ccc3N(Cc3ccccc3)C12 (stereo partly drawn) [MES 9215] | 94.55 | 108.1 | 6.2 | 92.3 | 78.6 | 12.9 | – | – | – | – | – | – | – | – | – | – | – | –
CN1CC[C@@]2(C)C3=CC(=O)C(=O)C=C3N(C)C12 (stereo partly drawn) [MES 9225] | 110.45 | 109.2 | 59.75 | 104.6 | 100.1 | 66.5 | – | – | – | – | – | – | – | – | – | – | – | –
C=CC1C[N+]2(Cc3ccc(C(F)(F)F)cc3)CCC1CC2[C@H](O)c1ccnc2ccccc12.[Br-] (stereo partly drawn) [MES 9226] | 116.55 | 101.95 | 104.65 | 106.4 | 99.7 | 97.9 | – | – | – | – | – | – | – | – | – | – | – | –
COc1ccc2c(c1)[C@@](C)(CC#N)C(=O)N2C [MES 9227] | 101.15 | 99.45 | 120.5 | 103.7 | 99.27 | 96.07 | – | – | – | – | – | – | – | – | – | – | – | –
COc1ccc2c(c1)[C@@]1(C)CCNC1N2C (stereo partly drawn) [MES 9228] | – | – | – | – | – | – | – | – | – | – | – | – | 97.75 | 110.45 | 130.05 | 102.8 | 97.6 | 95.4
COc1ccc2c(c1)[C@@]1(C)CCN(C)C1N2C (stereo partly drawn) [MES 9229] | 111.6 | 111.4 | 125.1 | 99.97 | 96.07 | 91.47 | – | – | – | – | – | – | – | – | – | – | – | –
CN1CC[C@]2(C)c3cc(O)ccc3N(C)C12 (stereo partly drawn) [MES 9230] | 101.25 | 88.8 | 4.4 | 100.8 | 86.13 | 13.83 | – | – | – | – | – | – | – | – | – | – | – | –
